According to patent US20200208111A1, “GENOME-EDITED NK CELL AND METHODS OF MAKING AND USING” (REGENTS OF THE UNIVERSITY OF MINNESOTA, priority 2016, published 2020):

Assays:
TIGIT = TIGIT expression in knockout NK cells by flow cytometry; assay type: cell-based, human; conditions: with Cas9 mRNA, compared to matched donor samples electroporated with Cas9 mRNA alone; five days after electroporation; n=2 donors
Protocol: 3×10^6 NK cells from two donors (donors 407 and 613) stimulated with aAPCs were electroporated using the optimized NEON electroporation conditions with 10 μg Cas9 mRNA and 10 μg gRNA. Five days after electroporation, cells were harvested and stained with antibodies for CD56, CD3, TIGIT, and SYTOX Blue viability dye. Cells were gated on single cells (FSC-H vs FSC-A), CD56^+, CD3^−, SYTOX Blue^−, and TIGIT^+. TIGIT expression in knockout cells was compared to matched donor samples electroporated with Cas9 mRNA alone.

PD1 = assay: CRISPR/Cas9 gene editing at PD1 in primary human NK cells, Surveyor nuclease activity assay; assay type: cell-based; conditions: chemically modified gRNA and Cas9 mRNA; 72 hours post electroporation
Protocol: For FIGS. 1-7 (as appropriate), activity of the gRNAs was quantified by a Surveyor Digest, gel electrophoresis, and densitometry (Guschin et al., Methods Mol. Biol., 2010, 649:247-256).
Unstimulated or stimulated CD3^−CD56^+ NK cells were nucleofected using the AMAXA nucleofection system (Human Macrophage Kit, Lonza Group, Basel, Switzerland). Cells were counted and resuspended at a density of 3.0×10^6 cells in 100 μL of Resuspension buffer, and the following reagents were added to the cells and buffer prior to nucleofection: 10 μg, 15 μg, or 20 μg mRNA Cas9 (TriLink. BioTechnologies, San Diego, Calif.), and 10 μg, 20 μg, or 30 μg gRNA (TriLink BioTechnologies, San Diego, Calif.). Three days after nucleofection, cells were harvested and gRNA activity was measured as above.

CISH = CISH expression in NK cells after electroporation, protein lysates on Wes machine with CISH-specific antibody; assay type: cell-based, human; conditions: with Cas9 mRNA, compared to matched donor samples electroporated with Cas9 mRNA alone; five days after electroporation; n=3 donors
Protocol: NK cells (3×10^6) from three donors (donors 070, 380, and 437) stimulated with aAPCs were electroporated using the optimized NEON electroporation conditions with 10 μg Cas9 mRNA and 10 μg CISH gRNA. Five days after electroporation, cells were harvested and protein lysates were run with a CISH-specific antibody on a Wes machine (Protein Simple, San Jose, Calif.) and CISH expression (area under peak) normalized to ([…] was analyzed using Compass Software (Protein Simple, Bio-Techne, Minneapolis, Minn.). Results are shown in FIG. 9.

For “TIGIT gRNA: guide RNA GACCUGGGUCACUUGUGCCG (SEQ ID NO: 13) (listed as RNA, chemistry not given here)”, the TIGIT expression (TIGIT) was “decreased”.

For “PD1 gRNA: guide RNA CCUGCUCGUGGUGACCGAAG (SEQ ID NO: 11), chemically modified (chemically modified, pattern not given here)”, the “Gene modification of NK cells” value (PD1) was “gene modification of NK cells was induced”.

With “CISH gRNA: guide RNA GGGUUCCAUUACGGCCAGCG (SEQ ID NO: 14) (listed as RNA, chemistry not given here)” the CISH expression (CISH) was “decreased”.
